Measurements: patent US4882327A, “Certain heterocyclic N-substituted carboxamides” (Beecham Group p.l.c., priority 1987, dated 1989)
Structures can show the parent of a compound that is named as a salt.

These compounds were tested on von Bezold-Jarisch reflex evoked by 5-HT (assay: Antagonism of the von Bezold-Jarisch reflex evoked by 5-HT in the anesthetized rat). Details: iv, urethane-anesthetized male rats, submaximal 5-HT (usually 6 μg/kg i.v.), heart rate changes, read-out: ED50 (dose required to reduce the 5-HT-evoked response to 50% of the control response).
Format: in vivo
Experimental: Antagonism of the von Bezold-Jarisch reflex
The compounds were evaluated for antagonism of the von Bezold-Jarisch reflex evoked by 5-HT in the anesthetized rat according to the following method
Male rats 250-350 g, were anesthetized with urethane (1.25 g/kg intraperitoneally) and blood pressure and heart rate recorded as described by Fozard J. R. et al., J. Cardiovasc Pharmacol 2, 229-245 (1980). A submaximal dose of 5-HT (usually 6 μg/kg) was given repeatedly by the intravenous route and changes in heart rate quantified Compounds were given intravenously and the concentration required to reduce the 5-HT-evoked response to 50% of the control response (ED50) was then determined.

SMILES | ED50
CCc1nc(C(=O)NC2CC3CCC(C2)N3C)c2ccccn12 (stereo not drawn) [Compound 9, (endo)-N-(8-Methyl-8-azabicyclo[3,2,1]oct-3-yl)-3ethylimidazo[1,5-a]plyridin-1-carboxamide] | 1 µg/kg
CCc1nc(C(=O)NC2CC3CCCC(C2)N3C)c2ccccn12 (centres unmarked) [Compound 8] | 0.5 µg/kg
CCc1cc(C(=O)NC2CC3CCC(C2)N3C)c2ccccn12 (stereo not drawn) [Compound 2, (endo)-N-(8-Methyl-8-azabicyclo[3.2.1]oct-3-yl)-3-ethylindolizin-1-carboxamide] | 0.24 µg/kg
CN1C2CCC1CC(NC(=O)c1ccc3cccccc1-3)C2 (stereo not drawn) [Compound 17, (endo)-N-(8-Methyl-8-azabicyclo[3.2.1]octan-3-yl)azulene-1-carboxamide] | 13 µg/kg
CN1C2CCC1CC(NC(=O)C1=CC(C)(C)c3ccccc31)C2 (stereo not drawn) [Compound 13, (endo)-N-(8-Methyl-8-azabicyclo[3.2.11]octan-3-yl)-3,3-dimethylindene-1-carboxamide monohydrochloride] | 1.1 µg/kg
